Source: US9920053B2, “N-(hetero)aryl-substituted heteroyclic derivatives useful for the treatment of diseases or conditions related to the central nervous system” (CHRONOS THERAPEUTICS LIMITED, priority 2014, dated 2018)

Assays:
[1] = biological target: human dopamine transporter (DAT) (Homo sapiens (Human), UniProt Q01959); assay: Scintillation Proximity Assay (SPA) for human DAT binding ([3H]WIN-35,428); settings: recombinant human DAT, CHO
Excerpt: (§1) Affinity is expressed in terms of inhibition constant (Ki) of the compounds of the invention for DAT, NET and SERT, and it is typically calculated from the IC50 values obtained in competition experiments using Cheng and Prusoff equation (Cheng and Prusoff, Biochem. Pharmacol. 22:3099, 1973). In the context of the present invention pKi values (corresponding to the antilogarithm of Ki) are used instead of Ki; pKi are only estimated to be accurate to about 0.3 log unit.
(§2) Chinese Hamster Ovary (CHO) cells stably expressing either human DAT (hDAT-CHO) or human NET (hNET-CHO) or human SERT (hSERT-CHO) are used for the membrane preparations for radioligand binding assays using Scintillation proximity Assay (SPA) technique. Each cell line is cultured independently in F-12K Nutrient Mixture containing 10% of Fetal Bovine Serum (FBS) supplemented with 450 μg/ml G-418. When cells are at 70-80% of confluence 3 mM Na Butyrate was added to the cell culture medium. After 24 h of incubation, the culture medium was removed and the cells detached with Versene (DAT) or by scraping (NET and SERT). Cell suspension is centrifuged at 41,000 g for 10 minutes at 4° C. The resultant pellets are re-suspended in 15 volumes of Ice-cold buffer (20 mM HEPES, 145 mM NaCl, 5 mM KCl, pH7.3), homogenized using an Ultra Turrax homogeniser and centrifuged as before. The resultant membrane pellets are re-suspended in up to 15 volume of ice-cold buffer, incubated for 20 minutes at 37° C and centrifuged as before at 41,000 g. The final membrane pellets are re-suspended into 5-10 volumes of ice-cold buffer, dispensed into 0.5 ml aliquots and stored at −80° C. until use. Protein concentration for each preparation is determined using Bio-Rad Protein Assay Kit.
(§3) The affinity of the compounds of the invention to the human DAT or NET or SERT transporters is assessed by using the [^3H]WIN-35,428 or [^3H]nisoxetine or [^3H]citalopram binding assays in recombinant human DAT, NET and SERT membranes with the SPA technology. The final assay volume is 50 μL in 384 well plates.
(§4) Briefly, 0.5 μL of test compound in neat DMSO or 0.5 μL of DMSO for total binding (TB) or 0.5 μL of indatraline 1 mM (10 μM final concentration) for non specific binding (NSB) are added to the assay plate. 50 μL of the SPA mixture is added to each well, containing: 30 μg/mL or 10 μg/mL or 25 μg/mL DAT, NET, SERT membranes, respectively; 5 nM [^3H]WIN-35,428 or 5 nM [^3H]nisoxetine or 1 nM [^3H]citalopram, for DAT, NET, SERT assay, respectively; 2.5 mg/mL or 1 mg/mL or 4 mg/mL WGA-PVT SPA beads (PerkinElmer RPNQ0001, for DAT, NET, SERT assay, respectively. All components are added to Assay Buffer (20 mM HEPES pH 7.4, 145 mM NaCl, 5 mM KCl, 0.01% Pluronic F-127). 0.02% BSA was used for DAT binding only. Plates are sealed with Topseal A and centrifuged 1 min, 800 rpm. Plates are loaded into a 1450 Microbeta TriLux (Perkin-Elmer) plate reader and the radioactivity counted after at least 4 hrs or overnight incubation at room temperature. Curve fitting and IC50 estimations are performed using a four parameter model in XLfit (IDBS, Guilford, UK) for Microdoft Excel (Microsoft, Redmond, Wash.).
The potency of the compounds of the invention in blocking the DAT function is measured using an uptake assay in a recombinant CHO cell line expressing human DAT (hDAT-CHO). Potency is measured in terms of pIC50 by testing the compounds of invention for the inhibition of [^3H]-dopamine uptake in DAT-CHO cells using a SPA technology in 384 well format.
Briefly, on the days of the experiment hDAT-CHO cells are detached using Versene and added (75,000 cells/mL) to the SPA Mixture, which contains the following components in Assay Buffer (20 mM HEPES, 145 mM NaCl, 5 mM KCl, 2 mM CaCl2, 1 mM MgCl2 and 1 g/L glucose, pH 7.3): 0.02% w/v of Pluronic F127, 2 mg/mL SPA Imaging beads (RPNQ0260, PerkinElmer), 10 μM pargyline and 80 nM of [^3H]-dopamine. […]

[2] = biological target: human norepinephrine transporter (NET) (Homo sapiens (Human), UniProt P23975); assay: Scintillation Proximity Assay (SPA) for human NET binding ([3H]nisoxetine); settings: recombinant human NET, CHO membranes
Excerpt: as §1, §2, §3, §4

[3] = biological target: human serotonin transporter (SERT) (Homo sapiens (Human), UniProt P31645); assay: Scintillation Proximity Assay (SPA) for human SERT binding ([3H]citalopram); settings: recombinant human SERT, CHO membranes
Excerpt: as §1, §2, §3, §4

[4] = biological target: human ERG potassium channel (hERG) (Homo sapiens (Human), UniProt Q12809); assay: hERG channel tail current recording using Rapid ICE automated patch-clamp; type: cell-based; settings: HEK293 cells stably transfected with hERG
Description: The potency of the compounds of the invention in inhibiting human ERG potassium channel (hERG) tail current is assessed in a recombinant HEK293 cell line stably transfected with hERG cDNA using Rapid ICE™ (Rapid Ion Channel Electrophysiology) assay. Rapid ICE™ is an automated patch-clamp assay utilizing the PatchXpress 7000A system (Molecular Devices Corporation) or the QPatch HTX system (Sophion Bioscience A/S).
Briefly cells are cultivated for 24 to 72 hours before recordings in minimum essential medium supplemented with 10% FBS, 1% non-essential amino acids, 1% sodium pyruvate, 2 mM L-glutamine. The day of the experiment cells are detached with TrypLE and prepared to be loaded on the instrument. For PatchXpress cells are finally resuspended in 150 μl of Extracellular Buffer whereas for QPatch cells are resuspended in 7 ml Serum-Free Media containing 25 mM Hepes and Soybean trypsin inhibitor and immediately placed in the cell storage tank of the machine. The composition of the Extracellular Buffer is (mM): NaCl 137; KCl 4; CaCl2 1.8; MgCl2 1.0; D-glucose 10; N 2 hydroxyethylpiperazine-N′-2-ethanesulfonic acid (HEPES) 10; pH 7.4 with 1 M NaOH. The composition of the pipette solution is (mM): KCl 130; MgCl2 1.0; Ethylene glycol-bis(β-aminoethyl ether)-N,N,N′,N′-tetraacetic acid (EGTA) 5; MgATP 5; HEPES 10; pH 7.2 with 1 M KOH. The voltage protocol includes the following steps: step from −80 mV to −50 mV for 200 ms, +20 mV for 4.8 s, step to −50 mV for 5 s then step to the holding potential of −80 mV. Compounds of the invention are dissolved in DMSO and diluted in Extracellular Buffer to achieve final test concentrations (0.1, 1 and 10 μM) in 0.1% DMSO. The voltage protocol is run and recorded continuously during the experiment. The vehicle, corresponding to 0.1% DMSO in Extracellular Buffer, is then applied for 3 min followed by the test substance in triplicate. The standard combined exposure time is 5 min. The average of tail current amplitude values recorded from 4 sequential voltage pulses is used to calculate for each cell the effect of the test substance by calculating the residual current (% control) compared with vehicle pre-treatment. Data are reported as % inhibition for each concentration tested and IC50 values are estimated using DataXpress or QPatch software. At least two cells are tested, more if results diverge.

Sequence of human dopamine transporter (DAT) (Q01959 whole entry): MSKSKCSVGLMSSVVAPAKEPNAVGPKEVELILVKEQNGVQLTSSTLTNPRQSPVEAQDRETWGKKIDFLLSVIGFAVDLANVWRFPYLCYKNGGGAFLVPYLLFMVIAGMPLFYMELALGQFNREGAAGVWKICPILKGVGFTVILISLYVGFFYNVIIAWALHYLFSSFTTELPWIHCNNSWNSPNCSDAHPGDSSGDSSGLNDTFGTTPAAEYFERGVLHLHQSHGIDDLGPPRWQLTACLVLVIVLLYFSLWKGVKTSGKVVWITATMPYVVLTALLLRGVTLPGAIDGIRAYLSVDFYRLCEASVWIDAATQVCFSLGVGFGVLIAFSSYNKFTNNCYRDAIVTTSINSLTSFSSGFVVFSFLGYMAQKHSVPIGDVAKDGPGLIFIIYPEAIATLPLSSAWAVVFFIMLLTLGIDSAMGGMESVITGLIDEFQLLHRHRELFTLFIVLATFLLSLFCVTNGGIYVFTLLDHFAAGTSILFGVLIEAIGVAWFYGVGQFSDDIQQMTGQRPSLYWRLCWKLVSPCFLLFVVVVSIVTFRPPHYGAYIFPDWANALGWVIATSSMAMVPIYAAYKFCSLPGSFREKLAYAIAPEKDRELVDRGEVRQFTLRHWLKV
Sequence of human ERG potassium channel (hERG) (Q12809 whole entry): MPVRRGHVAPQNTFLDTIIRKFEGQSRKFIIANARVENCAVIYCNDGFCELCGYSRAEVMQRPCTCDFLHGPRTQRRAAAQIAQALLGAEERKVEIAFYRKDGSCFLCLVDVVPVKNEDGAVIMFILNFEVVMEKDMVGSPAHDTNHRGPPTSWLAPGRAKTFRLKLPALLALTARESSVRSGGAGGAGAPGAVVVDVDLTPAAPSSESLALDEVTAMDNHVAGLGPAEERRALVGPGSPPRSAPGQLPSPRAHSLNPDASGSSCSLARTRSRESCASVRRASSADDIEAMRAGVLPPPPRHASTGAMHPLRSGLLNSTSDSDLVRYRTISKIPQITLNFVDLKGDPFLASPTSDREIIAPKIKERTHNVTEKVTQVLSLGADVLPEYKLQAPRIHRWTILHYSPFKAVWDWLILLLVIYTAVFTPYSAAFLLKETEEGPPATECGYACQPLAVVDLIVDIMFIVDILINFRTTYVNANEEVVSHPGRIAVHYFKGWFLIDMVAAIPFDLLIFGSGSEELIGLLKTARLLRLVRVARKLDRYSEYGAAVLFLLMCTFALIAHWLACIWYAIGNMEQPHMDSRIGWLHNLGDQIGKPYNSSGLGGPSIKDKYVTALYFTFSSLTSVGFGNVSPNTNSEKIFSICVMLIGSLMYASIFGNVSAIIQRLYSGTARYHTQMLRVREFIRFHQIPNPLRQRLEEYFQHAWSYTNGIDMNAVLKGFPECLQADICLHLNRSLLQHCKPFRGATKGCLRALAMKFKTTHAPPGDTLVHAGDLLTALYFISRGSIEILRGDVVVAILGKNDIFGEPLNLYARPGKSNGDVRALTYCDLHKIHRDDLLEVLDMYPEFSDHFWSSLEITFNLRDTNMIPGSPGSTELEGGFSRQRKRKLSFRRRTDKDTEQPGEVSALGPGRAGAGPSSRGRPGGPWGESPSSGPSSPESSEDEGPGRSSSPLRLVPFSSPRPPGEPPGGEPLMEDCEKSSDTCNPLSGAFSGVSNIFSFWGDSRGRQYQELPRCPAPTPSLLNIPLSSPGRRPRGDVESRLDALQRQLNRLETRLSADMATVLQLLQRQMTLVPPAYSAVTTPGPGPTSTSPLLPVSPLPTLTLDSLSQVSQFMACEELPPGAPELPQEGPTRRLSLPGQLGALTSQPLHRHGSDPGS
Sequence of human norepinephrine transporter (NET) (P23975 whole entry): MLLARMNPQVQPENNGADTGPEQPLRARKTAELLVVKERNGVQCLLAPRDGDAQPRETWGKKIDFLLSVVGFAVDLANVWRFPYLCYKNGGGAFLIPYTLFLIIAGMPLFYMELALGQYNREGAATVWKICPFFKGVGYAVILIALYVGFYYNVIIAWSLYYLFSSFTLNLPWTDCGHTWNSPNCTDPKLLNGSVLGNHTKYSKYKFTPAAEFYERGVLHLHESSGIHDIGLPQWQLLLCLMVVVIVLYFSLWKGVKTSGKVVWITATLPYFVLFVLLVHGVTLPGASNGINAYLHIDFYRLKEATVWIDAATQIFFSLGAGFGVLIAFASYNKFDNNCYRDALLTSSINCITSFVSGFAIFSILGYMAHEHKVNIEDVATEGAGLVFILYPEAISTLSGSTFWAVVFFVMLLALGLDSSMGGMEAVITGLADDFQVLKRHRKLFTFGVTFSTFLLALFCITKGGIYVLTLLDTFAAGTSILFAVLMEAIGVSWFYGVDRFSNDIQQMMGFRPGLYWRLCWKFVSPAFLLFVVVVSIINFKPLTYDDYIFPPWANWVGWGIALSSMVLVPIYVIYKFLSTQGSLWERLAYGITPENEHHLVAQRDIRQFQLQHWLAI
Sequence of human serotonin transporter (SERT) (P31645 whole entry): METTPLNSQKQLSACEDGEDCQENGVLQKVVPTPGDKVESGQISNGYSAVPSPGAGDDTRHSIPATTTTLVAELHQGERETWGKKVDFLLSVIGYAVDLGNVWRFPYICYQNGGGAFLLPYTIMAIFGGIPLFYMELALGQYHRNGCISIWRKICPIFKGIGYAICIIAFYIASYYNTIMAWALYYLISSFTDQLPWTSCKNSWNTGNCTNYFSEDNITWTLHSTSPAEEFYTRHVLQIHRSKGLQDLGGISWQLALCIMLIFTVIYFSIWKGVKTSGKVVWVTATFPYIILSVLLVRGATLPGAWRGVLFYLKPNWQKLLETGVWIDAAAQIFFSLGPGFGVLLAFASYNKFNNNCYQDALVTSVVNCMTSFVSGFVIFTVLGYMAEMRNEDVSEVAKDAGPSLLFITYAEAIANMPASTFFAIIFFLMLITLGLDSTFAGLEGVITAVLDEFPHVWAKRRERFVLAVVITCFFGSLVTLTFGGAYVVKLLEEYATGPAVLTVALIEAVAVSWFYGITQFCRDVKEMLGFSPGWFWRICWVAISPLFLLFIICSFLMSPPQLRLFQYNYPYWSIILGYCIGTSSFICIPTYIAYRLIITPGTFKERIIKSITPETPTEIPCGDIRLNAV

| SMILES | pIC50 DAT [1] | pIC50 NET [2] | IC50 [3] | IC50 [4] | pIC50 hERG [4] | IC50 [2] |
| --- | --- | --- | --- | --- | --- | --- |
| OC1(CN2CCC(F)(F)C2)CCN(c2nc(Oc3cccc(F)c3)cc(C(F)(F)F)n2)CC1 [Example 6, 4-[(3,3-difluoropyrrolidin-1-yl)methyl]-1-[4-(3-fluorophenoxy)-6-(trifluoromethyl)pyrimidin-2-yl]piperidin-4-ol] | 6.89 | 5.94 | 32.4 µM | > 10 µM | – | – |
| Cl.OC1(CN2CCCNCC2)CCN(c2nc(Oc3cccc(F)c3)cc(C(F)(F)F)n2)CC1 [Example 7, 4-(1,4-diazepan-1-ylmethyl)-1-[4-(3-fluorophenoxy)-6-(trifluoromethyl)pyrimidin-2-yl]piperidin-4-ol hydrochloride] | 8.06 | 6.53 | 2.95 µM | – | 5.8 | – |
| O=C(NCC1(O)CCN(c2nc(Oc3cccc(F)c3)cc(C(F)(F)F)n2)CC1)c1cnccn1 [Example 28, N-({1-[4-(3-fluorophenoxy)-6-(trifluoromethyl)pyrimidin-2-yl]-4-hydroxypiperidin-4-yl}methyl)pyrazine-2-carboxamide] | 7.86 | 5.96 | > 100 µM | – | 5.5 | – |
| CN(CC1(O)CCN(c2nc(Oc3cccc(F)c3)cc(C(F)(F)F)n2)CC1)C1CC1 [Example 4, 4-{[cyclopropyl(methyl)amino]methyl}-1-[4-(3-fluorophenoxy)-6-(trifluoromethyl)pyrimidin-2-yl]piperidin-4-ol] | 7.38 | 6.19 | > 100 µM | – | 6.1 | – |
| NCC1(O)CCN(c2cc(F)c(F)c(Oc3cccc(F)c3)c2)CC1 [Example 19, 4-(aminomethyl)-1-[3,4-difluoro-5-(3-fluorophenoxy)phenyl]piperidin-4-ol] | 8.02 | 6.10 | 0.363 µM | – | 6.1 | – |
| NCC(=O)NCC1(O)CCN(c2nc(Oc3cccc(F)c3)cc(C(F)(F)F)n2)CC1 [Example 29, 2-amino-N-({1-[4-(3-fluorophenoxy)-6-(trifluoromethyl)pyrimidin-2-yl]-4-hydroxypiperidin-4-yl}methyl)acetamide] | 8.22 | 5.77 | 19.1 µM | – | 5.4 | – |
| O=C(NCC1(O)CCN(c2nc(Oc3cccc(F)c3)cc(C(F)(F)F)n2)CC1)c1ccccc1 [Example 26, N-({1-[4-(3-fluorophenoxy)-6-(trifluoromethyl)pyrimidin-2-yl]-4-hydroxypiperidin-4-yl}methyl)benzamide] | 7.65 | – | > 100 µM | – | 5.5 | > 100 µM |
